Data as given in patent publication US10988459B2 (priority 2015, dated 2021).

biological target: human RIP1 kinase domain (2-375) (Homo sapiens (Human), UniProt Q13546); assay: biochemical; type: biochemical; conditions: Ki
Method in brief: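 Ki^app comes from Morrison tight-binding fits of fractional activity versus compound concentration. Activity was read as ADP production, via tracer displacement lowering fluorescence polarization (633 nm laser). Conditions: 2 h, 50 nM insect-cell-expressed enzyme, 50 uM ATP, 30 mM MgCl2, 1 mM DTT, 0.5% DMSO, pH 7.5 Hepes.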

human RIP1 kinase domain (2-375), sequence (Q13546 2-375): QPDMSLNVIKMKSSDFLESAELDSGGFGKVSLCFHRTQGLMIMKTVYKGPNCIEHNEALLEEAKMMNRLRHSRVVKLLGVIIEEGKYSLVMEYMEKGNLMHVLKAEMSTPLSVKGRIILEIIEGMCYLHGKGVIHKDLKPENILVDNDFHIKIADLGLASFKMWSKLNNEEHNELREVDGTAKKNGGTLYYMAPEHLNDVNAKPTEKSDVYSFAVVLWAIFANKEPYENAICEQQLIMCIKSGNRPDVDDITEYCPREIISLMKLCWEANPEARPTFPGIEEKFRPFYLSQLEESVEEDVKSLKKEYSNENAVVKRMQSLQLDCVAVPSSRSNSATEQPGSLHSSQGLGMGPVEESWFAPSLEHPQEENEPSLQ

Structure (SMILES)	Ki
CN1C(=O)[C@@H](NC(=O)c2ncn(Cc3ccccc3)n2)CCn2nc(C3CNC3)cc21 [Example 754, 1-benzyl-N-[(6S)-2-(azetidin-3-yl)-4-methyl-5-oxo-7,8-dihydro-6H-pyrazolo[1,5-a][1,3]diazepin-6-yl]-1,2,4-triazole-3-carboxamide]	411 nM

same assay, conditions: Table 1; apparent Ki (Morrison tight-binding fit); 50 nM RIP1 kinase domain, 50 uM ATP, 2 hours incubation; read-out: RIP1 Ki

Structure (SMILES)	Ki
CN1C(=O)[C@@H](NC(=O)c2cc3c(cn2)COC3(C)C)COc2ccccc21 [Example 22, (S)-1,1-dimethyl-N-(5-methyl-4-oxo-2,3,4,5-tetrahydrobenzo[b][1,4]oxazepin-3-yl)-1,3-dihydrofuro[3,4-c]pyridine-6-carboxamide]	898 nM
CN1C(=O)[C@@H](NC(=O)c2ncn3c2CC(C(F)(F)F)CC3)COc2ccccc21 (stereo partly drawn) [Example 38, N-[(3S)-5-methyl-4-oxo-2,3-dihydro-1,5-benzoxazepin-3-yl]-7-(trifluoromethyl)-5,6,7,8-tetrahydroimidazo[1,5-a]pyridine-1-carboxamide]	87.4 nM
CN1C(=O)[C@@H](NC(=O)c2n[nH]c3c2CC(c2ccccc2)OC3)COc2ccccc21 (stereo partly drawn) [Example 9, N—((S)-5-methyl-4-oxo-2,3,4,5-tetrahydrobenzo[b][1,4]oxazepin-3-yl)-5-phenyl-1,4,5,7-tetrahydropyrano[3,4-c]pyrazole-3-carboxamide]	282 nM
CN1C(=O)[C@@H](NC(=O)c2ncn3ccc(C(F)(F)F)cc23)CCn2nccc21 [Example 75, (S)-N-(4-methyl-5-oxo-5,6,7,8-tetrahydro-4H-pyrazolo[1,5-a][1,3]diazepin-6-yl)-7-(trifluoromethyl)imidazo[1,5-a]pyridine-1-carboxamide]	231 nM

same assay, conditions: Table 5; apparent Ki (Morrison tight-binding fit); 50 nM RIP1 kinase domain, 50 uM ATP, 2 hours incubation; read-out: Ki

Structure (SMILES)	Ki
COCCNCc1cc2n(n1)CCC(NC(=O)c1ncn(Cc3ccccc3)n1)C(=O)N2C (single isomer, unassigned) [Example 784]	225 nM
CN1C(=O)[C@@H](NC(=O)c2ncn(Cc3ccccc3)n2)CCn2nc(CC3CCOCC3)cc21 [Example 774, 1-benzyl-N-[(6S)-4methyl-5-oxo-2-(tetrahydropyran-4-ylmethyl)-7,8-dihydro-6H-pyrazolo[1,5-a][1,3]diazepin-6-yl]-1,2,4-triazole-3-carboxamide]	37 nM
CCn1ccc(-c2cc3n(n2)CCC(NC(=O)c2ncn(Cc4ccccc4)n2)C(=O)N3C)n1 (racemic) [Example 704, 1-benzyl-N-[2-(1-ethylpyrazol-3-yl)-4-methyl-5-oxo-7,8-dihydro-6H-pyrazolo[1,5-a][1,3]diazepin-6-yl]-1,2,4-triazole-3-carboxamide]	95 nM
C[C@@]1(C(F)(F)F)OCc2cnc(C(=O)N[C@H]3CCc4cc(F)cc(F)c4NC3=O)nc21 [Example 749, (7R)-7-methyl-N-[(3S)-7,9-difluoro-2-oxo-1,3,4,5-tetrahydro-1-benzazepin-3-yl]-7-(trifluoromethyl)-5H-furo[3,4-d]pyrimidine-2-carboxamide]	12 nM
COCCc1cc2n(n1)CC[C@H](NC(=O)c1ncn(Cc3ccccc3F)n1)C(=O)N2C [Example 768]	51 nM

same assay, conditions: human RIP1 kinase domain (2-375), 50 uM ATP, 2 hours incubation, Transcreener ADP assay; read-out: RIP1 Ki

Structure (SMILES)	Ki
CN1C(=O)C(NC(=O)c2cn(Cc3ccccc3)nn2)CCn2nc3c(c21)CCCC3 (stereo not shown) [Example 135, 1-benzyl-N-(1-methyl-2-oxo-2,3,4,5,8,9,10,11-octahydro-1H-[1,3]diazepino[1,2-b]indazol-3-yl)-1H-1,2,3-triazole-4-carboxamide]	390 nM
CC(c1ccccc1)c1nnc(C(=O)NC2CCCn3nccc3N(C)C2=O)[nH]1 (stereo not shown) [Example 95, N-(4-methyl-5-oxo-4,5,6,7,8,9-hexahydropyrazolo[1,5-a][1,3]diazocin-6-yl)-5-(1-phenylethyl)-4H-1,2,4-triazole-3-carboxamide]	4300 nM
CN1C(=O)[C@@H](NC(=O)c2ncc3c(n2)C(C)(C)OC3)COc2ccccc21 [Example 217, (S)-7,7-dimethyl-N-(5-methyl-4-oxo-2,3,4,5-tetrahydrobenzo[b][1,4]oxazepin-3-yl)-5,7-dihydrofuro[3,4-d]pyrimidine-2-carboxamide]	61.7 nM

same assay, conditions: human RIP1 kinase domain (2-375), Transcreener ADP assay, 50 uM ATP, 2 hours incubation; read-out: RIP1 Ki

Structure (SMILES)	Ki
Cc1nn2c(c1C)N(C)C(=O)[C@@H](NC(=O)c1nnc(Cc3ccc(F)cc3)[nH]1)CC2 [Example 330, (S)-5-(4-fluorobenzyl)-N-(2,3,4-trimethyl-5-oxo-5,6,7,8-tetrahydro-4H-pyrazolo[1,5-a][1, 3]diazepin-6-yl)-4H-1,2,4-triazole-3-carboxamide]	103 nM
Cc1cc(Cn2cnc(C(=O)NC3CCn4nc(C5CC5)cc4N(C)C3=O)n2)ccn1 (stereo not shown) [Example 242, N-(2-cyclopropyl-4-methyl-5-oxo-5,6,7,8-tetrahydro-4H-pyrazolo[1,5-a][1,3]diazepin-6-yl)-1-((2-methylpyridin-4-yl)methyl)-1H-1,2,4-triazole-3-carboxamide]	5700 nM
Cc1cc2n(n1)CC[C@H](NC(=O)c1ncn(Cc3c(F)cccc3F)n1)C(=O)N2C [Example 301, (S)-1-(2,6-difluorobenzyl)-N-(2,4-dimethyl-5-oxo-5,6,7,8-tetrahydro-4H-pyrazolo[1,5-a][1,3]diazepin-6-yl)-1H-1,2,4-triazole-3-carboxamide]	10.4 nM

same assay, conditions: tight-binding apparent inhibition constant; human RIP1 kinase domain (2-375) 50 nM, 50 uM ATP, 2 hours; read-out: Ki

Structure (SMILES)	Ki
Cc1nc(C)n2c1N(C)C(=O)[C@H](NC(=O)c1ncn(Cc3cc(F)ccc3F)n1)CC2 [Example 598, 1-[(2,5-difluorophenyl)methyl]-N-(3R)-1,7,9-trimethyl-2-oxo-4,5-dihydro-3H-imidazo[1,5-a][1,3]diazepin-3-yl-1,2,4-triazole-3-carboxamide]	130 nM
CN1C(=O)[C@@H](NC(=O)c2cc3c(cn2)COC32CCCOC2)COc2ccccc21 (stereo partly drawn) [Example 489, N-[(3S)-5-methyl-4-oxo-2,3-dihydro-1,5-benzoxazepin-3-yl]spiro[3H-furo[3,4-c]pyridine-1,3′-tetrahydropyran]-6-carboxamide]	94 nM
CN1C(=O)[C@@H](NC(=O)c2nccc(C3(O)CCCC3)n2)COc2ccccc21 [Example 509, 4-(1-hydroxycyclopentyl)-N-[(3S)-5-methyl-4-oxo-2,3-dihydro-1,5-benzoxazepin-3-yl]pyrimidine-2-carboxamide]	440 nM
CN1C(=O)C(NC(=O)c2ncn(Cc3ccccc3)n2)CCn2nc(C(C)(C)F)cc21 (single isomer, unassigned) [Example 370, 1-benzyl-N-[2-(1-fluoro-1-methyl-ethyl)-4-methyl-5-oxo-7,8-dihydro-6H-pyrazolo[1,5-a][1,3]diazepin-6-yl]-1,2,4-triazole-3-carboxamide]	555 nM
Cc1cc2n(n1)CC[C@H](NC(=O)c1ncn(Cc3ncccc3C)n1)C(=O)N2C [Example 644, 1-[(3-methyl-2-pyridyl)methyl]-N-(6S)-2,4-dimethyl-5-oxo-7,8-dihydro-6H-pyrazolo[1,5-a][1,3]diazepin-6-yl-1,2,4-triazole-3-carboxamide]	310 nM
CN1C(=O)[C@@H](NC(=O)c2ncn(Cc3ccccc3)n2)CCn2nc(C[C@H]3CC3(F)F)cc21 [Example 547, 1-benzyl-N-(6S)-4-methyl-5-oxo-2-[(1 S)-2,2-difluorocyclopropylmethyl]-7,8-dihydro-6H-pyrazolo[1,5-a][1,3]diazepin-6-yl-1,2,4-triazole-3-carboxamide]	8.5 nM
CN1C(=O)C(NC(=O)c2ncn(Cc3ccccc3)n2)CCn2nc(C(C)(C)O)cc21 (racemic) [Example 372, 1-benzyl-N-[2-(1-hydroxy-1-methyl-ethyl)-4-methyl-5-oxo-7,8-dihydro-6H-pyrazolo[1,5-a][1,3]diazepin-6-yl]-1,2,4-triazole-3-carboxamide]	488 nM
Cc1cn2c(n1)N(C)C(=O)C(NC(=O)c1ncn(Cc3ccccc3)n1)CC2 (stereo not shown) [Example 535, 1-benzyl-N-(2,9-dimethyl-8-oxo-6,7,8,9-tetrahydro-5H-imidazo[1,2-a][1,3]diazepin-7-yl)-1H-1,2,4-triazole-3-carboxamide]	130 nM
O=C(N[C@H]1CCc2cc(F)cc(F)c2NC1=O)c1nc2n(n1)[C@H](c1ccccc1)CC2 (single isomer, unassigned) [Example 612]	71 nM
CN1C(=O)[C@@H](NC(=O)c2ncc3c(n2)[C@]2(CCCOC2)OC3)COc2ccccc21 (racemic) [Example 696, rac-(75)-N-[rac-(3S)-5-methyl-4-oxo-2,3-dihydro-1,5-benzoxazepin-3-yl]spiro[5H-furo[3,4-d]pyrimidine-7,3′-tetrahydropyran]-2-carboxamide]	120 nM
Cc1ccccc1Cn1cnc(C(=O)N[C@H]2CCn3nc(C4CC4)cc3N(C)C2=O)n1 [Example 604]	21 nM
O=C(N[C@H]1CCc2cc(F)cc(F)c2NC1=O)c1nc2n(n1)[C@H](C(F)(F)F)CC2 [Example 357, (5S)—N-[(3S)-7,9-difluoro-2-oxo-1,3,4,5-tetrahydro-1-benzazepin-3-yl]-5-(trifluoromethyl)-6,7-dihydro-5H-pyrrolo[1,2-b][1,2,4]triazole-2-carboxamide]	46.1 nM
CN1C(=O)[C@@H](NC(=O)c2ncn(C[C@H]3C[C@@H](C(F)(F)F)C3)n2)CCn2nccc21 [Example 493]	92 nM
CN1C(=O)[C@H](NC(=O)c2nnc(Cc3ccc(F)cc3)[nH]2)CCn2nc(C(F)(F)F)cc21 [Example 550]	210 nM
CN1C(=O)[C@@H](NC(=O)c2nc3cccc(-c4cc(F)ccc4F)n3n2)CCn2nccc21 [Example 382, (S)-5-(2,5-difluorophenyl)-N-(4-methyl-5-oxo-5,6,7,8-tetrahydro-4H-pyrazolo[1,5-a][1,3]diazepin-6-yl)-[1,2,4]triazolo[1,5-a]pyridine-2-carboxamide]	13.1 nM
